Results reported in patent US20260000692A1, “Substituted N-(Pyridin-2-yl)Acetamide Derivatives as CDK12/13 Inhibitors” (Aurigene Oncology Limited, priority 2022, published 2026).

Biological target: CDK12 (Homo sapiens, UniProt Q9NYV4)
Test: Biochemical assay for CDK12 (LANCE TR-FRET, IC50 determination)
Details: for IC50: CDK12, IC50 class, read-out: IC50 μM (in range); for inhibition at 10 µM: read-out: CDK12 % Inhibition @ 10 μM
Outline: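 30 nM CDK12 phosphorylated 100 nM ULight-4E-BP1 (Thr37/Thr46) peptide at 100 µM ATP, as printed, in HEPES pH 7.5 buffer with MgCl2 and DTT. Compound and enzyme were preincubated 60 min, then reacted 60 min at room temperature before stopping with EDTA and Eu anti-phospho antibody. TR-FRET 665/615 ratio gave sigmoidal IC50 fits.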

Sequence of CDK12 (Q9NYV4 whole entry): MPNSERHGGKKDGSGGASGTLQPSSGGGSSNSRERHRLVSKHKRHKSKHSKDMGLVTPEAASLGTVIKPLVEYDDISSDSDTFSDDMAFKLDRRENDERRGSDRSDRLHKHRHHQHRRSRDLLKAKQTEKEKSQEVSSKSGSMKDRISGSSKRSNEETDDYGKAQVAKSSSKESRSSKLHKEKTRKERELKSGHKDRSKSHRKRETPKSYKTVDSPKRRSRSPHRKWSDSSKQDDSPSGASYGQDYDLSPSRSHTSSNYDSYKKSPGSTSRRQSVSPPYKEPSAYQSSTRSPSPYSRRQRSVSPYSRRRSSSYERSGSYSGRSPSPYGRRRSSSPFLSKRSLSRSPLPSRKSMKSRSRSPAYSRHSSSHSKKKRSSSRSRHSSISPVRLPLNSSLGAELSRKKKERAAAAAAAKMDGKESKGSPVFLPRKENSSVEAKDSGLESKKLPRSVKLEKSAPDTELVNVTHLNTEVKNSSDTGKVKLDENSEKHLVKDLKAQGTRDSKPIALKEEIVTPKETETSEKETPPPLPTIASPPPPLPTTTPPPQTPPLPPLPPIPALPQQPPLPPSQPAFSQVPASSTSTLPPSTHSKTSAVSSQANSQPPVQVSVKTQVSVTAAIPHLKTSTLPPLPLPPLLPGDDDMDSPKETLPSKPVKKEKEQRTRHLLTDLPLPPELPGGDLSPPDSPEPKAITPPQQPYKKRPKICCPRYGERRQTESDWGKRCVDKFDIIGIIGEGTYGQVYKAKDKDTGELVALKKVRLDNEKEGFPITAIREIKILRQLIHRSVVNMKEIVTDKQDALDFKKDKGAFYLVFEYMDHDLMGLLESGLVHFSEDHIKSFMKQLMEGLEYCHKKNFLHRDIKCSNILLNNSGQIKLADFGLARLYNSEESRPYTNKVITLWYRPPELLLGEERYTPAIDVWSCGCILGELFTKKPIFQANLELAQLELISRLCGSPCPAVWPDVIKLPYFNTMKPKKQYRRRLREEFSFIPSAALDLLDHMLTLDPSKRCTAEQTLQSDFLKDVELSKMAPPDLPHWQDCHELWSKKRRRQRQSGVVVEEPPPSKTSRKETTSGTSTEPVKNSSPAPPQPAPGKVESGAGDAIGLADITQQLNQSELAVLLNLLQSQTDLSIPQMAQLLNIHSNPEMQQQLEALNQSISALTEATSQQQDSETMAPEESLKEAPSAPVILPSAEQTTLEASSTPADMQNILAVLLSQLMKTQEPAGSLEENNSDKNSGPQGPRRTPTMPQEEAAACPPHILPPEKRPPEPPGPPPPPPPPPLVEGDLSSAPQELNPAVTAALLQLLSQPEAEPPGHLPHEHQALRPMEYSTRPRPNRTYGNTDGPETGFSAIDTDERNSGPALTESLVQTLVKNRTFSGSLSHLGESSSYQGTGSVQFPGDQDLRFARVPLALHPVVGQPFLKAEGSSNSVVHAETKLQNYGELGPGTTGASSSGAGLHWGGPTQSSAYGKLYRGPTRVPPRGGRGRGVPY
Sequence of CDK12 (O75909 whole entry partner): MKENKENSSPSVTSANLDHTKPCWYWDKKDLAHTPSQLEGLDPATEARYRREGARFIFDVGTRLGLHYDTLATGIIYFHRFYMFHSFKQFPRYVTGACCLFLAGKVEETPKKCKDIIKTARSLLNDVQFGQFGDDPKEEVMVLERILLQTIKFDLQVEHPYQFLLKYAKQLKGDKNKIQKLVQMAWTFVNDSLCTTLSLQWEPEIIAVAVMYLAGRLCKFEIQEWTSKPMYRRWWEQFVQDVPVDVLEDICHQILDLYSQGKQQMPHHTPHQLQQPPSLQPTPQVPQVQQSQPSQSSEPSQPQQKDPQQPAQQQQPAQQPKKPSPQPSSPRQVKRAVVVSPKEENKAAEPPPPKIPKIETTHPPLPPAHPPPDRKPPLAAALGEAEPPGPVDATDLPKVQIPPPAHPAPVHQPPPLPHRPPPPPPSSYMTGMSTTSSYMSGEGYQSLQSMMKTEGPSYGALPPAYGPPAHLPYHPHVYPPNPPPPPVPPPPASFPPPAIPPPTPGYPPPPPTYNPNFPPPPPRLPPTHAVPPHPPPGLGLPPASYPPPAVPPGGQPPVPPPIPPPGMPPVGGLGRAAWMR

| Structure (SMILES) | IC50 | inhibition at 10 µM (compound at 10 μM) | CDK12 % Inhibition @ 10 μM (compound at 10 μM, 10 µM) |
| --- | --- | --- | --- |
| COc1cc(NC(=O)Cc2ccc(-c3cc(N4CCC(C)(O)C4)cc(C#N)n3)nc2)ncc1Cl (stereo not drawn) [Compound 194, N-(5-chloro-4-methoxypyridin-2-yl)-2-(6′-cyano-4′-(3-hydroxy-3-methylpyrrolidin-1-yl)-[2,2′-bipyridin]-5-yl)acetamide] | > 0.1 µM | 94% |  |
| COc1cc(NC(=O)Cc2ccc(-c3cc(N4C[C@H]5CC[C@@H](C4)O5)cc(C#N)n3)nc2)ncc1Cl [Compound 195, 2-(4′-((1R,5S)-8-oxa-3-azabicyclo[3.2.1]octan-3-yl)-6′-cyano-[2,2′-bipyridin]-5-yl)-N-(5-chloro-4-methoxypyridin-2-yl)acetamide] | 0.01 to 0.1 µM | 84% |  |

Now from value to compound:

| IC50 | inhibition at 10 µM (compound at 10 μM) | CDK12 % Inhibition @ 10 μM (compound at 10 μM, 10 µM) | Structure (SMILES) |
| --- | --- | --- | --- |
| 0.01 to 0.1 µM | 89% |  | COc1cc(NC(=O)Cc2ccc(-c3cc(O[C@H]4CCOC4)cc(C#N)n3)nc2)ncc1Cl [Compound 196, (S)-N-(5-chloro-4-methoxypyridin-2-yl)-2-(6′-cyano-4′-((tetrahydrofuran-3-yl)oxy)-[2,2′-bipyridin]-5-yl)acetamide] |
| 0.01 to 0.1 µM |  | 87% | COc1cc(NC(=O)Cc2ccc(-c3cc(O[C@H]4CCOC4)cc(C#N)n3)nc2)ncc1Cl [Compound 197, (S)-N-(5-chloro-4-methoxypyridin-2-yl)-2-(6′-cyano-4′-((tetrahydrofuran-3-yl)oxy)-[2,2′-bipyridin]-5-yl)acetamide] |
| 0.01 to 0.1 µM | 100% |  | COc1cc(NC(=O)Cc2ccc(-c3cc(OC4CCN(C)CC4F)cc(C#N)n3)nc2)ncc1Cl (stereo not drawn) [Compound 198, N-(5-chloro-4-methoxypyridin-2-yl)-2-(6′-cyano-4′-((3-fluoro-1-methylpiperidin-4-yl)oxy)-[2,2′-bipyridin]-5-yl)acetamide] |
| < 0.01 µM | 88% |  | COc1cc(NC(=O)Cc2ccc(-c3cc(OC4CCCN(C)C4)cc(C#N)n3)nc2)ncc1Cl (stereo not drawn) [Compound 199, N-(5-chloro-4-methoxypyridin-2-yl)-2-(6′-cyano-4′-((1-methylpiperidin-3-yl)oxy)-[2,2′-bipyridin]-5-yl)acetamide] |
